According to patent US20040005537A1, “Method of identifying toxic agents using differential gene expression” (priority 2000, published 2004):

Key:
[1] = cited from earlier work
[2] = test system: rat heart tissue; assay: GENECALLING differential gene expression analysis after dosing of serotonin modulating agents; format: in vivo, Sprague Dawley rats
Description: Control animals received sterile water or canola oil. The animals were sacrificed 24 hours following the last dose. Liver tissue was dissected from the animals, and total RNA was recovered from the dissected tissue. cDNA was prepared and the resulting samples were processed through using GENECALLING™ differential expression analysis as described in U.S. Pat. No. 5,871,697 and in Shimkets et al., Nature Biotechnology 17:798-803 (1999). The contents of these patents and publications are incorporated herein by reference in their entirety.
Thousands of gene fragments were initially found to be differentially expressed in rat heart tissue in response to serotonin modulating agents in. Genes fragments whose expression levels were modulated greater than ±1.5-fold were selected for further analysis.
Column 6 of Table 1, entitled “Function”, lists the type of classification assigned for the protein, based on its function. The 210 single nucleic acid sequences identified herein, are referred to herein as CARDIOTOX 1-210.

Structure (SMILES): CCNC(C)Cc1cccc(C(F)(F)F)c1 (stereo not shown) [fenfluramine]
- classification as cardiotoxic or noncardiotoxic serotonin modulating agent ([1]; grouping used to generate the distinguishing gene profiles): cardiotoxic
- side effect reported in a subset of patients ([1]; patients to which they are administered): valvular heart disease
- Effects on Transcription Level: Novel gene fragment, 524 bp, 86% SI to mouse F-box protein FBX6b [AF176526] ([2]; CARDIOTOX 1): +1.4 fold
- Effects on Transcription Level: Novel gene fragment, 306 bp, 91% SI to mouse low density lipoprotein receptor related protein 4 [AB013874] ([2]; CARDIOTOX 2): −1.1 fold
- Effects on Transcription Level: Novel gene fragment, 540 bp, 97% SI to mouse skeletal muscle alpha-actin [X03766] ([2]; CARDIOTOX 3): +1.3 fold
- Effects on Transcription Level: Novel gene fragment, 80 bp ([2]; CARDIOTOX 4): −1.1 fold
- Effects on Transcription Level: Novel gene fragment, 957 bp, 99% SI to kidney injury associated moleculer HW036 [V80591] ([2]; CARDIOTOX 5): −1.4 fold
- Effects on Transcription Level: Novel gene fragment, 282 bp, 85% SI to human KIAA1515 protein [AB040948] ([2]; CARDIOTOX 6): −1.3 fold
- Effects on Transcription Level: Novel gene fragment, 405 bp, 88% SI to human 2-oxoglutarate dehydrogenase [D10523] ([2]; CARDIOTOX 7): +1.4 fold
- Effects on Transcription Level: UCP2 ([2]; CARDIOTOX 8, GenBank AB010743): −1.3 fold
- Effects on Transcription Level: Plasma membrane Ca2 + ATPase-isoform 1 ([2]; CARDIOTOX 9, GenBank J03753): −1.3 fold
- Effects on Transcription Level: Novel gene fragment, 242 bp, 97% SI to mouse HSP86 heat-shock protein [X16857] ([2]; CARDIOTOX 10): +1.6 fold
- Effects on Transcription Level: Novel gene fragment, 280 bp, 65% SI to human TRF1-interacting, ankyrin-related ADP-ribose polymerase [AF082556] ([2]; CARDIOTOX 11): +1.6 fold
- Effects on Transcription Level: Novel gene fragment, 348 bp, 88% SI to mouse Sec61 protein complex gamma subunit [U11027] ([2]; CARDIOTOX 12): +1.6 fold
- Effects on Transcription Level: Novel gene fragment 553 bp, 93% SI to mouse Sid329 [AB024984] ([2]; CARDIOTOX 13): +1.5 fold
- Effects on Transcription Level: Kruppel-like transcription factor ([2]; CARDIOTOX 14, GenBank AB020759): +1.7 fold
- Effects on Transcription Level: Ribosomal protein L3 ([2]; CARDIOTOX 15, GenBank X62166): +2.3 fold
- Effects on Transcription Level: Glucose-regulated protein (GRP) 75 ([2]; CARDIOTOX 16, GenBank S78556): +1.5 fold
- Effects on Transcription Level: Immunoglobulin heavy chain binding protein (BiP) ([2]; CARDIOTOX 17, GenBank M14050): +2.0 fold
- Effects on Transcription Level: Membrane-spannining proteoglycan NG2 ([2]; CARDIOTOX 18, GenBank X56541): −1.5 fold
- Effects on Transcription Level: Novel gene fragment, 1294 bp, 96% SI to mouse Sui 1 (elF) homolog [AF129888] ([2]; CARDIOTOX 19): +1.6 fold
- Effects on Transcription Level: Novel gene fragment, 723 bp, 85% SI to human translation initiation factor elF3 p40 subunit [U54559] ([2]; CARDIOTOX 20): +1.5 fold
- Effects on Transcription Level: Novel gene fragment, 1324 bp, 76% SI to human flavoprotein subunit of complex II [D30648] ([2]; CARDIOTOX 21): +1.5 fold
- Effects on Transcription Level: Novel gene fragment, 852 bp, 81% SI to human vacuolar proton-ATPase subunit M9.2 [Y15286] ([2]; CARDIOTOX 22): +1.6 fold
- Effects on Transcription Level: Novel gene fragment, 178 bp, 91% SI to mouse myosin light chain-2 isoform MLC-2a [S70785] ([2]; CARDIOTOX 23): +1.5 fold
- Effects on Transcription Level: Novel gene fragment, 167 bp, 90% SI to mouse Rab20 [X80332] ([2]; CARDIOTOX 24): +1.8 fold
- Effects on Transcription Level: Novel gene fragment, 1070 bp, 80% SI to human muscle-specific protein [AF249873] ([2]; CARDIOTOX 25): +1.7 fold
- Effects on Transcription Level: Novel gene fragment, 1143 bp, 82% SI to human sarcoma amplified sequence (SAS) [U01160] ([2]; CARDIOTOX 26): +1.8 fold
- Effects on Transcription Level: Novel gene fragment, 74 bp,75% SI to human secreted protein [X30160] (from patent database)/[X97578] (from patent database)/potential cytokine) ([2]; CARDIOTOX 27): +1.6 fold
- Effects on Transcription Level: Novel gene fragment, 408 bp, 90% SI to human CGI-07 protein [AF132941] ([2]; CARDIOTOX 28): +1.6 fold
- Effects on Transcription Level: Novel gene fragment, 618 bp, 95% SI to rat progression related cDNA, ZNPE-120 3′ end partial sequence [patent database X90805] ([2]; CARDIOTOX 29): +1.6 fold
- Effects on Transcription Level: Novel gene fragment, 717 bp ([2]; CARDIOTOX 30): +1.6 fold
- Effects on Transcription Level: Novel gene fragment, 546 bp ([2]; CARDIOTOX 31): +1.5 fold
- Effects on Transcription Level: Novel gene fragment, 920 bp, 91% SI to human HSPC061 [AF161546] ([2]; CARDIOTOX 32): +1.5 fold
- Effects on Transcription Level: Novel gene fragment, 203 bp, 92% SI to rabbit sarcoplasmic reticulum glycoprotein [J04480] ([2]; CARDIOTOX 33): −1.7 fold
- Effects on Transcription Level: Novel gene fragment, 178 bp, 68% SI to mouse IgG receptor (beta-Fc-gamma-RII)[M63159] ([2]; CARDIOTOX 34): +1.5 fold
- Effects on Transcription Level: Ribosomal protein L6 ([2]; CARDIOTOX 35, GenBank X87107): +1.5 fold
- Effects on Transcription Level: CAP2 protein (adenylyl cyclase-associated protein 2) ([2]; CARDIOTOX 36, GenBank U31935): +2.0 fold
- Effects on Transcription Level: Alpha-platelet-derived growth factor receptor ([2]; CARDIOTOX 37, GenBank M63837): +1.5 fold
- Effects on Transcription Level: Rab GD1 alpha protein ([2]; CARDIOTOX 38, GenBank X74402): −1.5 fold
- Effects on Transcription Level: PKC-zeta-interacting protein ([2]; CARDIOTOX 39, GenBank Y08355): +1.5 fold
- Effects on Transcription Level: ERK or MAP kinase ([2]; CARDIOTOX 40, GenBank X65198): +1.5 fold
- Effects on Transcription Level: Peroxisomal multifunctional enzyme type II ([2]; CARDIOTOX 41, GenBank U37486): +1.5 fold
- Effects on Transcription Level: HBP23 (heme-binding protein 23 kDa) ([2]; CARDIOTOX 42, GenBank D30035): +1.6 fold
- Effects on Transcription Level: Caveolae-associated protein ([2]; CARDIOTOX 43, GenBank U90725): +1.5 fold
- Effects on Transcription Level: Prenylated rab acceptor 1 (PRA1) ([2]; CARDIOTOX 44, GenBank AF025506): +1.6 fold
- Effects on Transcription Level: Novel gene fragment, 337 bp, 88% SI to rabbit cardiac ryanodine receptor (RyR-2)[U50465] ([2]; CARDIOTOX 45): −1.6 fold
- Effects on Transcription Level: Novel gene fragment, 81 bp, 85% SI to human titin [X90568] ([2]; CARDIOTOX 46): −1.8 fold
- Effects on Transcription Level: Novel gene fragment, 428 bp, 86% SI to human titin [X90568] ([2]; CARDIOTOX 47): −1.8 fold
- Effects on Transcription Level: Novel gene fragment, 374 bp, 88% SI to human titin [X90568] ([2]; CARDIOTOX 48): −1.8 fold
- Effects on Transcription Level: Novel gene fragment, 428 bp, 85% SI to human titin [90568] ([2]; CARDIOTOX 49): −1.9 fold
- Effects on Transcription Level: Novel gene fragment, 1216 bp, 93% SI to mouse mircotubule-associated protein (MAP) 1B protein [AF115776] ([2]; CARDIOTOX 50): −1.7 fold
- Effects on Transcription Level: Novel gene fragment, 1115 bp, 83% SI to human KIAA0549 protein [AB011121] ([2]; CARDIOTOX 51): −1.8 fold
- Effects on Transcription Level: Novel gene fragment, 153 bp ([2]; CARDIOTOX 52): −1.7 fold
- Effects on Transcription Level: Novel gene fragment, 89 bp, 93% SI to human putative glialblastoma cell differentiation-related protein (GBDR1) [AF068195] ([2]; CARDIOTOX 53): −1.6 fold
- Effects on Transcription Level: Rho-associated kinase beta ([2]; CARDIOTOX 54, GenBank U61266): −1.8 fold
- Effects on Transcription Level: Adenylate kinase 3 ([2]; CARDIOTOX 55, GenBank D13062): +1.6 fold
- Effects on Transcription Level: Amyloid beta-peptide binding protein ([2]; CARDIOTOX 56, GenBank AF049878): +1.6 fold
- Effects on Transcription Level: Mitochondrial adenine nuleotide translocator ([2]; CARDIOTOX 57, GenBank D12771): +1.6 fold
- Effects on Transcription Level: Novel gene fragment, 710 bp, 94% SI to mouse chromatin structural protein homolog Supt5 hp (Supt5 h)[U88539] ([2]; CARDIOTOX 58): +3.4 fold
- Effects on Transcription Level: Novel gene fragment, 186 bp, 66% SI to human N-acetylglucosaminyltransferase 1 (GlcNAc-TI)[M55621] ([2]; CARDIOTOX 60): −3.0 fold
- Effects on Transcription Level: Novel gene fragment, 238 bp, 95% SI to mouse MAP kinase-activated protein kinase 2 [X76850] ([2]; CARDIOTOX 61): −2.4 fold
- Effects on Transcription Level: Novel gene fragment, 173 bp, 70% SI to G protein-coupled receptor kinase GRK4 [X97568] ([2]; CARDIOTOX 62): −6.6 fold
- Effects on Transcription Level: Novel gene fragment, 133 bp, 77% SI to human apoptosis related protein hSARP3 [patent database: V19114] ([2]; CARDIOTOX 63): −3.1 fold
- Effects on Transcription Level: Novel gene fragment, 477 bp, 98% SI to peroxisomal phytanoyl-CoA hydroxylase (PHYH) [AF121345] ([2]; CARDIOTOX 64): +4.8 fold
- Effects on Transcription Level: Novel gene fragment, 413 bp, 95% SI to mouse dihydrolipoamide dehydrogenase (Dld) [U73445] ([2]; CARDIOTOX 65): +2.3 fold
- Effects on Transcription Level: Novel gene fragment, 726 bp, 76% SI to human succinate dehydrogenase flavoprotein subunit (SDH) [L21936] ([2]; CARDIOTOX 66): −4.0 fold
- Effects on Transcription Level: Novel gene fragment, 440 bp, 92% SI to mouse cytochrome c oxidase Vllc [X52940] ([2]; CARDIOTOX 67): +4.0 fold
- Effects on Transcription Level: Novel gene fragment, 276 bp, 80% SI to human titin [X90568] ([2]; CARDIOTOX 68): −12.7 fold
- Effects on Transcription Level: Novel gene fragment, 149 bp, 70% SI to human titin [X90568] ([2]; CARDIOTOX 69): −5.6 fold
